This note sets out measurements from patent EP0843554B1, “ASCORBYL-PHOSPHORYL-CHOLESTEROL” (AVON PRODUCTS, INC., priority 1996, dated 1997).

For the assay, the system named is cultured human skin fibroblasts. In words: [^3H]-Proline Incorporation Assay (collagen biosynthesis). The class given is cell-based. Conditions: fibroblasts incubated with 11.3, 22.5 and 45 µg/ml for 48 hours; radioactive counts of newly synthesized [^3H]-hydroxyproline; numbers only in a chart image. The procedure: An art-recognized [^3H]-Proline Incorporation Assay was performed with different doses of 3'-(L-ascorbyl-2-phosphoryl)-cholesterol. Juva, Anal. Biochem., Vol. 15, pages 77-83 (1966); Booth, Biochim. Biophys. Acta, Vol. 675, pages 117-122 (1981).
Fibroblasts were incubated with 0 µg/ml, 11.3 µg/ml, 22.5 µg/ml and 45 µg/ml of 3'-(L-ascorbyl-2-phosphoryl)-cholesterol for a total of 48 hours. After the first 24 hours [^3H]-labeled proline was added to the culture. Following the second 24 hour period the cells were harvested and prepared for the collagen biosynthesis assay.
Protease inhibitors were added to prevent degradation of collagen and other proteins. The cell layer was scraped into a solution containing 0.4 M NaCl and 0.01 M Tris (pH 7.5). Extracts were sonicated to disrupt cell membranes. Separate volumes of the cell-containing solution (1 ml each) were dialyzed overnight against several changes of deionised water. The retentate was removed from dialysis and hydrolyzed in 6 N hydrochloric acid at 120°C overnight. The assay was performed using an oxidation process with 2 M chloramine-T. Samples were analyzed for radioactive counts, which represent the amount of newly synthesized [^3H]-hydroxyproline -- an index for new collagen synthesis.

On to `CC(C)CCC[C@@H](C)[C@H]1CC[C@H]2[C@@H]3CC=C4C[C@@H](OP(=O)(O)OC5=C(O)[C@@H]([C@@H](O)CO)OC5=O)CC[C@]4(C)[C@H]3CC[C@]12C` [3'-(L-ascorbyl-2-phosphoryl)-cholesterol], for which the “production of new collagen” value is listed as “increased production of new collagen by human skin fibroblasts in a dose-dependent manner”.
